In PubChem BioAssay AID1963965 (Molecular Pharmacology Branch, DTP, NCI, 2024):
pIC50: −log10 of the molar value.

Tested on: 996289-038-R-J1-PDC spheroid viability
Assay: Anticancer human tumor 996289-038-R-J1-PDC patient-derived colon adenocarcinoma cell line growth inhibition [PI3K]
Settings: spheroids with HUVEC and MSC; for pIC50: curve of first compound; for viability, T/C: stronger effect = lower value
Excerpt: Combinatorial screen of targeted agents with the PI3K inhibitors inavolisib, alpelisib, duvelisib, and copanlisib in multi-cell type tumor spheroids
A high-throughput screen of multi-cell type tumor spheroids was designed to identify active combinations of targeted small molecules and PI3K pathway inhibitors. Complex spheroids include a stromal component modeled by human endothelial cells (HUVEC) and fibroblasts modeled by human mesenchymal stem cells (MSCs). The concentration ranges selected for each drug and investigational agent were based upon clinically achievable concentrations if the clinical Cmax of the agent was known.
Compounds. The drugs and investigational agents: inavolisib (NSC800729), alpelisib (NSC765974), duvelisib (NSC772469), copanlisib (NSC816437), ipatasertib (NSC767898), afuresertib (NSC778305), talazoparib (NSC767125), sapanisertib (NSC764658), selumetinib (NSC741078), tovorafenib (DAY101, NSC766906), vemurafenib (NSC761431), ravoxertinib (NSC781343), sotorasib (NSC818433), MRTX1133 (NSC 836407), abemaciclib (NSC 768073), palbociclib (NSC758247), venetoclax (NSC 766270), SY5609 (NSC837396), enzalutamide (NSC755605), and darolutamide (NSC825331), were obtained from the National Cancer Institute (NCI) Developmental Therapeutics Program Chemical Repository. The FDA-approved anticancer drug set is available from the NCI Developmental Therapeutics Program. […] The stock solutions were prepared in dimethyl sulfoxide (DMSO, Sigma-Aldrich, St. Louis, MO, cat. D2650) at 800-fold the tested concentration and stored at -70 degrees C prior to their use. All drugs and investigational agents were tested over a range starting from a high concentration at or near the clinical Cmax and decreasing in half-log increments. If the clinical Cmax for an agent had not been determined, the highest concentration tested was 10 microM.
Cell Culture. All cells were maintained in an incubator at 37 degrees C and 5% CO2 with 95% humidity. The PDC lines were cultured according to standard operating procedures established by the NCI PDMR (https://pdmr.cancer.gov/sops/default.htm). All PDCs were thawed and cultured in Matrigel-coated flasks prepared with a working solution of 1X Ham's F-12 nutrient mix, without supplementation (Invitrogen, Waltham, MA, cat. 11765054), 100 U/mL penicillin-streptomycin (Invitrogen, cat. 15140122), and 2.5% Matrigel (Corning Inc., Corning, NY, cat. 354248) for the first three passages. The 354836-022-R-J1-PDC, 475296-252-R-J1-PDC, and 997726-040-R-J2-PDC lines were cultured in 6A media, which includes advanced DMEM/F-12 (Thermo Fisher Scientific, cat. 12634028), 10 mM HEPES (Thermo Fisher Scientific, cat. 15630080), 1X GlutaMAX supplement (Thermo Fisher Scientific, cat. 35050061), 0.1 mg/mL primocin (InvivoGen, San Diego, CA, cat. ant-pm-2), 10% defined fetal bovine serum, heat inactivated (HyClone Laboratories Inc., Logan, UT, cat. SH30070.03HI), 50% L-WRN conditioned media (ATCC, cat. CRL-3276), 1.25 mM N-Acetyl-L-cysteine (Sigma-Aldrich, cat. A9165), 10 mM nicotinamide (Sigma-Aldrich, cat. N0636), 1X B-27 supplement (Thermo Fisher Scientific, cat. 17504044), 1X N-2 supplement (Thermo Fisher Scientific, cat. 17502048), and 10 microM Y-27632 dihydrochloride (Tocris Bioscience, Bristol, United Kingdom, cat. 1254). The 624824-186-R-J2-PDC line was cultured in 6C/Colon 1B media, which includes all 6A media components plus 50 ng/mL human EGF recombinant protein (Thermo Fisher Scientific, cat. PHG0311). […]

[1] = second compound 0.00316 µM, first compound 0.0316 µM
[2] = second compound 0.00316 µM, first compound 0.1 µM
[3] = second compound 0.01 µM, first compound 0.0316 µM
[4] = second compound 0.01 µM, first compound 0.1 µM
[5] = second compound 0.0316 µM, first compound 0.0316 µM
[6] = second compound 0.0316 µM, first compound 0.1 µM
[7] = second compound 0.1 µM, first compound 0.0316 µM
[8] = second compound 0.1 µM, first compound 0.1 µM
[9] = second compound 0.316 µM, first compound 0.0316 µM
[10] = second compound 0.316 µM, first compound 0.1 µM
[11] = second compound 1 µM, first compound 0.0316 µM
[12] = second compound 1 µM, first compound 0.1 µM
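Note: spheroids exposed to compounds for seven days before viability read.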
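Throughout, for viability, T/C: luminescence used as a proxy for viable cell amount; percent viability relative to DMSO vehicle control as 100%.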

Which results are given for `CC(C)n1nc(-c2ccc3oc(N)nc3c2)c2c(N)ncnc21` + CC(Nc1ccc2c(c1)OCCn1cc(N3C(=O)OCC3C(F)F)nc1-2)C(N)=O?
pIC50 (second compound 0.00316 µM): 7.29; pIC50 (second compound 0.01 µM): 7.34; pIC50 (second compound 0.0316 µM): 7.50; pIC50 (second compound 0.1 µM): 7.63; pIC50 (second compound 0.316 µM): 8.07; pIC50 (second compound 1 µM): 8.26; viability, T/C (second compound 0.00316 µM, first compound 0.000316 µM): 95.9%; viability, T/C (second compound 0.00316 µM, first compound 0.001 µM): 82.8%; viability, T/C (second compound 0.00316 µM, first compound 0.00316 µM): 90.5%; viability, T/C (second compound 0.00316 µM, first compound 0.01 µM): 81.1%; viability, T/C [1]: 64.5%; viability, T/C [2]: 29.7%; viability, T/C (second compound 0.01 µM, first compound 0.000316 µM): 94.8%; viability, T/C (second compound 0.01 µM, first compound 0.001 µM): 93.2%; viability, T/C (second compound 0.01 µM, first compound 0.00316 µM): 84.6%; viability, T/C (second compound 0.01 µM, first compound 0.01 µM): 75.9%; viability, T/C [3]: 62.4%; viability, T/C [4]: 28.5%; viability, T/C (second compound 0.0316 µM, first compound 0.000316 µM): 100%; viability, T/C (second compound 0.0316 µM, first compound 0.001 µM): 95.6%; viability, T/C (second compound 0.0316 µM, first compound 0.00316 µM): 79.1%; viability, T/C (second compound 0.0316 µM, first compound 0.01 µM): 63.2%; viability, T/C [5]: 54.7%; viability, T/C [6]: 29.1%; viability, T/C (second compound 0.1 µM, first compound 0.000316 µM): 85%; viability, T/C (second compound 0.1 µM, first compound 0.001 µM): 75.3%; viability, T/C (second compound 0.1 µM, first compound 0.00316 µM): 67.8%; viability, T/C (second compound 0.1 µM, first compound 0.01 µM): 62%; viability, T/C [7]: 48.5%; viability, T/C [8]: 23.4%; viability, T/C (second compound 0.316 µM, first compound 0.000316 µM): 64%; viability, T/C (second compound 0.316 µM, first compound 0.001 µM): 67.8%; viability, T/C (second compound 0.316 µM, first compound 0.00316 µM): 57.2%; viability, T/C (second compound 0.316 µM, first compound 0.01 µM): 43.9%; viability, T/C [9]: 39.8%; viability, T/C [10]: 17.1%; viability, T/C (second compound 1 µM, first compound 0.000316 µM): 52.3%; viability, T/C (second compound 1 µM, first compound 0.001 µM): 60.9%; viability, T/C (second compound 1 µM, first compound 0.00316 µM): 57.2%; viability, T/C (second compound 1 µM, first compound 0.01 µM): 41.6%; viability, T/C [11]: 33.7%; viability, T/C [12]: 16%

Which results are given for `CCCS(=O)(=O)Nc1ccc(F)c(C(=O)c2c[nH]c3ncc(-c4ccc(Cl)cc4)cc23)c1F` + CC(Nc1ccc2c(c1)OCCn1cc(N3C(=O)OCC3C(F)F)nc1-2)C(N)=O?
pIC50 (second compound 0.00316 µM): 5.23; pIC50 (second compound 0.01 µM): 5.21; pIC50 (second compound 0.0316 µM): 5.24; pIC50 (second compound 0.1 µM): 5.29; pIC50 (second compound 0.316 µM): 5.36; pIC50 (second compound 1 µM): 5.78; viability, T/C [1]: 108%; viability, T/C [2]: 89.7%; viability, T/C (second compound 0.00316 µM, first compound 0.316 µM): 86.3%; viability, T/C (second compound 0.00316 µM, first compound 1 µM): 96.7%; viability, T/C (second compound 0.00316 µM, first compound 3.16 µM): 83.4%; viability, T/C (second compound 0.00316 µM, first compound 10 µM): 21.2%; viability, T/C [3]: 101%; viability, T/C [4]: 95.8%; viability, T/C (second compound 0.01 µM, first compound 0.316 µM): 97.8%; viability, T/C (second compound 0.01 µM, first compound 1 µM): 101%; viability, T/C (second compound 0.01 µM, first compound 3.16 µM): 88%; viability, T/C (second compound 0.01 µM, first compound 10 µM): 21.4%; viability, T/C [5]: 95%; viability, T/C [6]: 98.5%; viability, T/C (second compound 0.0316 µM, first compound 0.316 µM): 96.6%; viability, T/C (second compound 0.0316 µM, first compound 1 µM): 99.4%; viability, T/C (second compound 0.0316 µM, first compound 3.16 µM): 82.5%; viability, T/C (second compound 0.0316 µM, first compound 10 µM): 20.6%; viability, T/C [7]: 72.4%; viability, T/C [8]: 71.8%; viability, T/C (second compound 0.1 µM, first compound 0.316 µM): 74.6%; viability, T/C (second compound 0.1 µM, first compound 1 µM): 73.4%; viability, T/C (second compound 0.1 µM, first compound 3.16 µM): 75.8%; viability, T/C (second compound 0.1 µM, first compound 10 µM): 16.9%; viability, T/C [9]: 74.8%; viability, T/C [10]: 74.3%; viability, T/C (second compound 0.316 µM, first compound 0.316 µM): 76.6%; viability, T/C (second compound 0.316 µM, first compound 1 µM): 68%; viability, T/C (second compound 0.316 µM, first compound 3.16 µM): 65.1%; viability, T/C (second compound 0.316 µM, first compound 10 µM): 15.1%; viability, T/C [11]: 63.1%; viability, T/C [12]: 72.3%; viability, T/C (second compound 1 µM, first compound 0.316 µM): 61.7%; viability, T/C (second compound 1 µM, first compound 1 µM): 52.1%; viability, T/C (second compound 1 µM, first compound 3.16 µM): 44.9%; viability, T/C (second compound 1 µM, first compound 10 µM): 12.1%
